Measured values as given in PubChem BioAssay (NCI).
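Each compound was tested at five concentrations against cells in 96-well plates for 48 hours. Abbreviation: GI50, concentration required for 50% inhibition of growth. TGI: concentration producing complete growth inhibition.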

What was measured:
Assay in all cases: DTP human tumour cell line panel, 48 h
786-0 renal = test system: 786-0 renal
HOP-92 NSCLC = test system: HOP-92 NSCLC
HT29 colon = test system: HT29 colon
KM12 colon = test system: KM12 colon
LOX IMVI melanoma = test system: LOX IMVI melanoma
OVCAR-4 ovarian = test system: OVCAR-4 ovarian
SK-MEL-28 melanoma = test system: SK-MEL-28 melanoma
SK-MEL-5 melanoma = test system: SK-MEL-5 melanoma
COLO 205 colon = test system: COLO 205 colon
DU-145 prostate = test system: DU-145 prostate

SMILES | TGI (786-0 renal) [µM] | TGI (HOP-92 NSCLC) [µM] | TGI (HT29 colon) [µM] | TGI (KM12 colon) [µM] | TGI (LOX IMVI melanoma) [µM] | TGI (OVCAR-4 ovarian) [µM] | TGI (SK-MEL-28 melanoma) [µM] | TGI (SK-MEL-5 melanoma) [µM] | TGI (COLO 205 colon) [µM] | TGI (DU-145 prostate) [µM] | GI50 (786-0 renal) [µM] | GI50 (COLO 205 colon) [µM] | GI50 (DU-145 prostate) [µM] | GI50 (HOP-92 NSCLC) [µM] | GI50 (HT29 colon) [µM] | GI50 (KM12 colon) [µM] | GI50 (OVCAR-4 ovarian) [µM] | GI50 (SK-MEL-28 melanoma) [µM] | GI50 (SK-MEL-5 melanoma) [µM] | GI50 (LOX IMVI melanoma) [µM]
CCOC(=O)C(C(O)c1ccc([N+](=O)[O-])cc1)P(=O)(OCC)OCC (configuration not stated) | > 100 | 99.5 | > 100 | > 100 | > 100 | > 100 | > 100 | > 100 | – | – | – | – | – | – | – | – | – | – | – | –
O=c1cc(-c2ccccc2)[nH]c2cc(Cl)ccc12 | 12.1 | 57.5 | > 100 | 52.5 | 21.7 | > 100 | > 100 | 19.6 | 2.82 | – | – | – | – | – | – | – | – | – | – | –
c1ccc(N/N=C2\NN=C(c3ccccc3)CS2)cc1 | 33.6 | 31.9 | 24 | 53.2 | 15.3 | – | 36.6 | – | – | – | – | – | – | – | – | – | – | – | – | –
O=C(O)Cc1cccc2c(=O)c3cccc([N+](=O)[O-])c3oc12 | > 100 | – | > 100 | > 100 | > 100 | > 100 | > 100 | > 100 | > 100 | > 100 | – | – | – | – | – | – | – | – | – | –
CN1CCN(Cc2cc(NC(=O)c3cccc(C#Cc4cccc5[nH]nc(N)c45)c3)cc(C(F)(F)F)c2)CC1 | 3.39 | 2.63 | 2.93 | 2.67 | – | 3.97 | 2.94 | 3.1 | 2.98 | 3.07 | 1.91 | 1.53 | 1.7 | 1.24 | 1.53 | 1.32 | 1.59 | 1.56 | 1.7 | –
COc1cnc2c(c1)C(=O)c1c-2n(CCCN2CCNCC2)c(=O)c2cc([N+](=O)[O-])ccc12 | 1.16 | 9.91 | 1.53 | 1.77 | – | 3.01 | 3.12 | 1.62 | 1.79 | 1.23 | 0.209 | 0.0617 | 0.278 | 1.25 | 0.21 | 0.38 | 1.24 | 1.42 | 0.403 | –
C/C(=N/Nc1nc(C)cc(=O)[nH]1)C(=O)O | > 100 | – | > 100 | > 100 | > 100 | > 100 | > 100 | > 100 | > 100 | > 100 | – | – | – | – | – | – | – | – | – | –
CCc1cccc(C)c1NC(=S)NC(=O)c1ccccc1C(=O)NC(=S)Nc1c(C)cccc1CC | > 100 | 65.4 | > 100 | > 100 | > 100 | > 100 | > 100 | > 100 | > 100 | – | – | – | – | – | – | – | – | – | – | –
CCN=C(C#N)NCC | > 100 | > 100 | > 100 | > 100 | > 100 | > 100 | > 100 | > 100 | > 100 | – | – | – | – | – | – | – | – | – | – | –
Fc1ccc(Nc2nc3ccccc3c3occc23)cc1 | 10.6 | 19.4 | – | 6.23 | 17.9 | 25.5 | 16.6 | 30.1 | 12.9 | 27.5 | 1.03 | 3.3 | 14.4 | 5.8 | – | 1.9 | 6 | 2.45 | 16.5 | 3.41
COc1ccc(CCc2cc(OC)c(O)c(OC)c2)cc1 | > 100 | > 100 | > 100 | > 100 | – | > 100 | 58.8 | > 100 | > 100 | – | – | – | – | – | – | – | – | – | – | –
Cc1cc(Cl)ccc1NC(=O)C(=O)C(C(=O)c1ccccc1)C1OC(=O)c2ccccc21 (configuration not stated) | > 100 | > 100 | > 100 | > 100 | > 100 | > 100 | > 100 | > 100 | > 100 | – | – | – | – | – | – | – | – | – | – | –
c1ccc2c(NCCCCCCNc3cccc4ccccc34)cccc2c1 | > 100 | > 100 | > 100 | > 100 | – | > 100 | > 100 | > 100 | > 100 | – | – | – | – | – | – | – | – | – | – | –
COCCn1cc(-c2csc(-c3c[nH]c4ccc(Br)cc34)n2)c2cccnc21 | > 100 | 30.7 | > 100 | > 100 | > 100 | > 100 | > 100 | 11.7 | 34 | – | 4.03 | 3.22 | – | 4.39 | 3.36 | 2.74 | 2.74 | 4.79 | 3.24 | 2.67
CCCCCC[C@H](C)NC(=O)c1ccc(Nc2nc3ccccc3c3occc23)cc1 | 7.71 | 50.4 | > 100 | 20.5 | 24.3 | – | > 100 | 5.24 | 8.45 | 8.87 | 2.35 | 3.07 | 3.07 | 3 | 2.53 | 4.27 | – | 5.41 | 2.24 | 11.4
CC(=O)O[C@H]1CC2C=CC3C(CCC31)O2 (some centres not stated) | > 100 | – | > 100 | – | > 100 | > 100 | > 100 | – | > 100 | – | – | – | – | – | – | – | – | – | – | –
CCOC(=O)c1cccnc1C(OC(C)=O)OC(C)=O | > 100 | > 100 | > 100 | > 100 | > 100 | > 100 | > 100 | > 100 | > 100 | – | – | – | – | – | – | – | – | – | – | –
CCOC1CC2OC(=O)C1C=C2C(=O)OC (configuration not stated) | 75.9 | 73.1 | > 100 | > 100 | > 100 | 57.4 | 62.8 | > 100 | 37.2 | – | – | – | – | – | – | – | – | – | – | –
[O-]c1c2c(nn1-c1ccc(Cl)cc1)c1ccccc1c[n+]2Cc1ccccc1 | > 100 | – | > 100 | > 100 | > 100 | > 100 | > 100 | > 100 | > 100 | – | – | – | – | – | – | – | – | – | – | –
CCCCCCCC(=O)[O][Hg][CH2]C1COC([CH2][Hg][O]C(=O)CCCCCCC)CO1 (configuration not stated) | 30.4 | 17.1 | 34.3 | 30.6 | – | – | 27 | 28.8 | 14.6 | 32.2 | 7.95 | 3.72 | 18.1 | 5.85 | 15.6 | 16.3 | – | 14 | 11 | –
